# Reference: patent US9670142B2, “1,3-diaminocyclopentane carboxamide derivatives” (Merck Patent GmbH, priority 2013, dated 2017)
# Target: human fatty acid synthase FASN (Homo sapiens (Human), UniProt P49327)
# Assay: Biochemical activity testing of human fatty acid synthase FASN (NADPH fluorescence intensity enzyme assay)
# Settings: human recombinant full-length fatty acid synthase
# From the text: Biochemical activity testing of human fatty acid synthase FASN
# Fatty acid synthase FASN is a multifunctional enzyme with seven catalytic activities thereby synthesising long chain fatty acids especially palmitoyl-CoA in the presence of co-factor NADPH starting from the substrates acetyl-CoA and malonyl-CoA. The reductive synthesis is realized by the oxidation of NADPH to NADP. Since NADPH has a high fluorescence intensity quantum yield compared to NADP with excitation at 340 nm and emission at 460 nm, the reaction can be monitored via the decrease in fluorescence intensity. The biochemical FASN activity testing was performed as 384 well two-time-point kinetic fluorescence intensity assay format in Greiner low volume medium binding 384-well black microtiter plates in a total assay volume of 8 μl and was used for high throughput screen. In each well 3 μl 40 nM human recombinant full-length fatty acid synthase (produced in-house in SF9 cells) were dispensed in the following assay buffer: 50 mM potassium phosphate buffer pH 7.0, 0.005% (w/v) BSA, 2 mM Glutathione, 0.02% Tween-20. Then 2 μl of 200 μM NADPH in assay buffer were added, followed by the addition of the test compounds in 10 dilution concentrations starting with 30 μM (final concentration) to get a final DMSO content of 1% (v/v). The mixture was incubated for at least 15 min at room temperature. After the pre-incubation the enzymatic reaction was started by the addition of 2 μl substrate solution (80 μM acetyl-CoA, 240 μM malonyl-CoA). A first fluorescence intensity measurement (time point one) was performed with an Envision multimode reader (Perkin Elmer LAS Germany GmbH) at excitation wavelength 340 nm (lamp mode) and emission wavelength 460 nm. The reaction was incubated for 30 minutes at room temperature. After this the fluorescence intensity was measured again in the Envision using the same parameters as described above (second time point measurement). The data were analysed by subtracting the first time point measurement value from the second time point measurement value (after the enzymatic reaction). The differences of the emission signals were determined. These reflect directly the conversion rate of NADPH. The full value used was the inhibitor-free reaction. A pharmacological zero value was used like GSK837149A (Sigma-Aldrich) in a final concentration of 5-10 μM. The inhibitory values (IC50) were determined using either the program Symyx Assay Explorer® or Condosseo® from GeneData.
# Chain of human fatty acid synthase FASN (P49327 whole entry): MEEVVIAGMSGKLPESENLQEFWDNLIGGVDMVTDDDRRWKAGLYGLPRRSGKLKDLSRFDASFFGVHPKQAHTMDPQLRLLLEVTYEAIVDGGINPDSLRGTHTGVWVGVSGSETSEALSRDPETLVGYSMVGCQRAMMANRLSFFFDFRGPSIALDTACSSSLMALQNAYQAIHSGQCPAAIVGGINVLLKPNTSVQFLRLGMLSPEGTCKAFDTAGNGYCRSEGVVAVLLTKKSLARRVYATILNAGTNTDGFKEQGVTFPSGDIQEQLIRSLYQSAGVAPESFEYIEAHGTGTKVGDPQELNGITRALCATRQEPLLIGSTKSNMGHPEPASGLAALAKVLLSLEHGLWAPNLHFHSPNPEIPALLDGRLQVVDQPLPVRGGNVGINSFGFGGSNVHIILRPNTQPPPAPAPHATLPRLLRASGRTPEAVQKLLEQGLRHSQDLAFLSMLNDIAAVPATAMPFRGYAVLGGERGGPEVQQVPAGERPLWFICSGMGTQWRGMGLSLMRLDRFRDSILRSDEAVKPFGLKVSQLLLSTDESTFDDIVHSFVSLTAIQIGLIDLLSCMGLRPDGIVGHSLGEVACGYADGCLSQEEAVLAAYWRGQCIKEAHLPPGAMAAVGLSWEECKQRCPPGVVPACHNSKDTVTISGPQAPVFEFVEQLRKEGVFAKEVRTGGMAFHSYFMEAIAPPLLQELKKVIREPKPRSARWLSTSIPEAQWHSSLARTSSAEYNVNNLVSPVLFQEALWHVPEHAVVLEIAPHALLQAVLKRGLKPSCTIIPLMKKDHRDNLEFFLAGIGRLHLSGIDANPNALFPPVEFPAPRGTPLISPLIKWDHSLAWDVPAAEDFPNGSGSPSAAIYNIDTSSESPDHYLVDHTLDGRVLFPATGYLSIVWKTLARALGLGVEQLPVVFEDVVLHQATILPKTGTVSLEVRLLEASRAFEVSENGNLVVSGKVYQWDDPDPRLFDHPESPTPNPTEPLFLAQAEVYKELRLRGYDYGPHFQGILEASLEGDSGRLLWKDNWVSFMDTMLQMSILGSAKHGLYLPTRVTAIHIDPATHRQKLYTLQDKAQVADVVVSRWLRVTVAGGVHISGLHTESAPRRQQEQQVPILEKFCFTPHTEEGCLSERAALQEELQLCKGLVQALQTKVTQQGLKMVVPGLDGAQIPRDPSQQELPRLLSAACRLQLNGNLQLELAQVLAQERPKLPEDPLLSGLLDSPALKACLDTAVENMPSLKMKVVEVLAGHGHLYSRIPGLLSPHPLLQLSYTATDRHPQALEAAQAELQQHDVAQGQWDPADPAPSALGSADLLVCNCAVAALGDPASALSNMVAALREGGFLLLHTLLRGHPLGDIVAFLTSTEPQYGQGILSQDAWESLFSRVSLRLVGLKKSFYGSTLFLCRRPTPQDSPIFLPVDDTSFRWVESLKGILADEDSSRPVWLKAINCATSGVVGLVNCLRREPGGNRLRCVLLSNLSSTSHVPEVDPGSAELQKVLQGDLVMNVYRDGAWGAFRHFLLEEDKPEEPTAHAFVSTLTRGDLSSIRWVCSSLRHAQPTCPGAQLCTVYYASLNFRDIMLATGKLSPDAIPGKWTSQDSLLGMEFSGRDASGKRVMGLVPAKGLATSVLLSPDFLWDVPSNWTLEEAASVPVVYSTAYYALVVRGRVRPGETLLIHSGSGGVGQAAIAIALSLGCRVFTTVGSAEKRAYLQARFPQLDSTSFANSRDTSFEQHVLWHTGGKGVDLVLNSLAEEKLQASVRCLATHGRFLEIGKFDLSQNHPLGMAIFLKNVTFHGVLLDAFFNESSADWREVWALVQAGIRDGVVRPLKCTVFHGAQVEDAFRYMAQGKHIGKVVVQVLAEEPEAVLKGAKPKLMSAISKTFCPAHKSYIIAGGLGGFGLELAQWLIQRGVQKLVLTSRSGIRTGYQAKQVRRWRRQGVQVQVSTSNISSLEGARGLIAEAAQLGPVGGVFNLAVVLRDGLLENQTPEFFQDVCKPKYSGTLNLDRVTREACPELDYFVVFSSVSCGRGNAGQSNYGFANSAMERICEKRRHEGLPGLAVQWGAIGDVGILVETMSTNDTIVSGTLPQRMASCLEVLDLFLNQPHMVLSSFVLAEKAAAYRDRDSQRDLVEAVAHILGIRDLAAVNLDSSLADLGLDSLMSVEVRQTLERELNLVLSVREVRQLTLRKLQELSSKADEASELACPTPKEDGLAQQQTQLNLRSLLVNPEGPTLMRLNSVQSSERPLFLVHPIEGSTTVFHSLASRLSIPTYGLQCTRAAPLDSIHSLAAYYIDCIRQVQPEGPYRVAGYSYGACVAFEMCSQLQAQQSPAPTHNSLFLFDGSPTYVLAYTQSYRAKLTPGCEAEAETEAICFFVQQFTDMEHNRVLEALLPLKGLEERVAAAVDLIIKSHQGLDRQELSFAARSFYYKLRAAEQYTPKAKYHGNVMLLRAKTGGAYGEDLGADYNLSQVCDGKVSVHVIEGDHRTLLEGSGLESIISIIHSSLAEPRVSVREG
row,Compound,IC50
1,"CCC(=O)N[C@H]1CC[C@@H](N(C)C(=O)c2ccc(-c3ccc4[nH]cc(C(N)=O)c4c3)c(F)c2)C1 [Compound A160, 5-{2-fluoro-4-[methyl-((1R,3S)-3-propionylamino-cyclopentyl)-carbamoyl]-phenyl}-1H-indole-3-carboxylic acid amide]",< 300 nM
2,"CCC(=O)N[C@H]1CC[C@@H](N(C)C(=O)c2ccc(-c3ccc(Cl)cc3F)cc2)C1 [Compound A92, 4′-chloro-2′-fluoro-biphenyl-4-carboxylic acid methyl-((1R,3S)-3-propionylamino-cyclopentyl)-amide]",< 300 nM
3,"CCC(=O)N[C@H]1CC[C@@H](N(C)C(=O)c2ccc(-c3ccc(Cl)c(F)c3)cc2)C1 [Compound A86, 4′-chloro-3′-fluoro-biphenyl-4-carboxylic acid methyl-((1R,3S)-3-propionylamino-cyclopentyl)-amide]",< 300 nM
4,"CCC(=O)N[C@H]1CC[C@@H](N(C)C(=O)c2ccc(-c3ccc4c(ccn4C)c3)c(C)c2)C1 [Compound A114, 3,N-dimethyl-4-(1-methyl-1H-indol-5-yl)-N-((1R,3S)-3-propionylamino-cyclopentyl)-benzamide]",< 300 nM
5,"CCC(=O)N[C@H]1CC[C@@H](N(C)C(=O)c2ccc(-c3ccc4c(c3)C(F)(F)C(=O)N4)nc2)C1 [Compound A147, 6-(3,3-difluoro-2-oxo-2,3-dihydro-1H-indol-5-yl)-N-methyl-N-((1R,3S)-3-propionylamino-cyclopentyl)-nicotinamide]",3000 to 50000 nM
6,"CCC(=O)N[C@H]1CC[C@@H](N(C)C(=O)c2ccc(-c3ccc4c(ccn4C)c3)cc2C)C1 [Compound A119, 2,N-dimethyl-4-(1-methyl-1H-indol-5-yl)-N-((1R,3S)-3-propionylamino-cyclopentyl)-benzamide]",< 300 nM
7,"CCC(=O)N[C@H]1CC[C@@H](N(C)C(=O)c2ccc(-c3ccc4[nH]ccc4c3)c(F)c2)C1 [Compound A112, 3-fluoro-4-(1H-indol-5-yl)-N-methyl-N-((1R,3S)-3-propionylamino-cyclopentyl)-benzamide]",< 300 nM
8,"CCC(=O)N[C@H]1CC[C@@H](N(C)C(=O)c2ccc(-c3ccc4[nH]ccc4c3)nc2)C1 [Compound A117, 6-(1H-indol-5-yl)-N-methyl-N-((1R,3S)-3-propionylamino-cyclopentyl)-nicotinamide]",< 300 nM
9,"CN(C(=O)c1ccc(-c2nc3ccccc3o2)cc1)[C@@H]1CC[C@H](NC(=O)[C@@H]2CCCO2)C1 [Compound A41, (S)-tetrahydro-furan-2-carboxylic acid {(1S,3R)-3-[(4-benzoxazol-2-yl-benzoyl)-methyl-amino]-cyclopentyl}-amide]",< 300 nM
10,"CCC(=O)N[C@H]1CC[C@@H](N(C)C(=O)c2ccc(-c3ccc4c(ccn4C)c3)cc2)C1 [Compound A80, N-methyl-4-(1-methyl-1H-indol-5-yl)-N-((1R,3S)-3-propionylamino-cyclopentyl)-benzamide]",< 300 nM
11,"CO[C@@H](C)C(=O)N[C@H]1CC[C@@H](N(C)C(=O)c2ccc(-c3nc4ccccc4o3)cc2)C1 [Compound A33, 4-benzoxazol-2-yl-N-[(1R,3S)-3-((S)-2-methoxy-propionylamino)-cyclopentyl]-N-methyl-benzamide]",< 300 nM
12,"CCC(=O)N[C@H]1CC[C@@H](N(C)C(=O)c2ccc(-c3ncc[nH]3)cc2)C1 [Compound A11, 4-(1H-imidazol-2-yl)-N-methyl-N-((1R,3S)-3-propionylamino-cyclopentyl)-benzamide]",3000 to 50000 nM
13,"CCC(=O)N[C@H]1CC[C@@H](N(C)C(=O)c2ccc(-c3nc4ccc(Cl)cc4o3)cc2)C1 [Compound A128, 4-(6-chloro-benzoxazol-2-yl)-N-methyl-N-((1R,3S)-3-propionylamino-cyclopentyl)-benzamide]",< 300 nM
14,"CCC(=O)N[C@H]1CC[C@@H](N(C)C(=O)c2cnc(-c3ccc4c(ccn4C)c3)cn2)C1 [Compound A125, 5-(1-methyl-1H-indol-5-yl)-pyrazine-2-carboxylic acid methyl-((1R,3S)-3-propionylamino-cyclopentyl)-amide]",< 300 nM
15,"CCC(=O)N[C@H]1CC[C@@H](N(C)C(=O)c2ccc(-c3ccc4[nH]cnc4c3)cc2)C1 [Compound A76, 4-(1H-benzimidazol-5-yl)-N-methyl-N-((1R,3S)-3-propionylamino-cyclopentyl)-benzamide]",< 300 nM
16,"CCC(=O)N[C@H]1CC[C@@H](N(C)C(=O)c2ccc(-c3ccc4c(c3)OCCO4)cc2)C1 [Compound A87, 4-(2,3-dihydro-benzo[1,4]dioxin-6-yl)-N-methyl-N-((1R,3S)-3-propionylamino-cyclopentyl)-benzamide]",< 300 nM
17,"CCC(=O)N[C@H]1CC[C@@H](N(C)C(=O)c2ccc(-c3cc4cn[nH]c4cc3C)cn2)C1 [Compound A103, 5-(6-methyl-1H-indazol-5-yl)-pyridine-2-carboxylic acid methyl-((1R,3S)-3-propionylamino-cyclopentyl)-amide]",300 to 3000 nM
18,"CCC(=O)N[C@H]1CC[C@@H](N(C)C(=O)c2ccc(-c3ccc4cc[nH]c4c3)cc2)C1 [Compound A67, 4-(1H-indol-6-yl)-N-methyl-N-((1R,3S)-3-propionylamino-cyclopentyl)-benzamide]",< 300 nM
19,"CCC(=O)N[C@H]1CC[C@@H](N(C)C(=O)c2ccc(-c3cc(F)c4[nH]ccc4c3)nn2)C1 [Compound A136, 6-(7-fluoro-1H-indol-5-yl)-pyridazine-3-carboxylic acid methyl-((1R,3S)-3-propionylamino-cyclopentyl)-amide]",300 to 3000 nM
20,"CCC(=O)N[C@H]1CC[C@@H](N(C)C(=O)c2ccc(-c3ccc(Cl)cc3)cc2)C1 [Compound A5, 4′-chloro-biphenyl-4-carboxylic acid methyl-((1R,3S)-3-propionylamino-cyclopentyl)-amide]",< 300 nM
21,"COCC(=O)N[C@H]1CC[C@@H](N(C)C(=O)c2ccc(-c3nc4ccccc4o3)cc2)C1 [Compound A34, 4-benzoxazol-2-yl-N-[(1R,3S)-3-(2-methoxy-acetylamino)-cyclopentyl]-N-methyl-benzamide]",< 300 nM
22,"CCC(=O)N[C@H]1CC[C@@H](N(C)C(=O)c2ccc(-c3ccc(OC)cc3OC)cc2)C1 [Compound A88, 2′,4′-dimethoxy-biphenyl-4-carboxylic acid methyl-((1R,3S)-3-propionylamino-cyclopentyl)-amide]",< 300 nM
23,"CCC(=O)N[C@H]1CC[C@@H](N(C)C(=O)c2ccc(-c3cnc4ccccc4c3)cc2)C1 [Compound A72, N-methyl-N-((1R,3S)-3-propionylamino-cyclopentyl)-4-quinolin-3-yl-benzamide]",< 300 nM
24,"CCC(=O)N[C@H]1CC[C@@H](N(C)C(=O)c2ccc(-c3ccc4[nH]ccc4c3F)cc2)C1 [Compound A116, 4-(4-fluoro-1H-indol-5-yl)-N-methyl-N-((1R,3S)-3-propionylamino-cyclopentyl)-benzamide]",< 300 nM
25,"CN(C(=O)c1ccc(-c2nc3cccc(F)c3o2)cc1)[C@@H]1CC[C@H](NC(=O)C2CC2)C1 [Compound A50, N-[(1R,3S)-3-(cyclopropanecarbonyl-amino)-cyclopentyl]-4-(7-fluoro-benzoxazol-2-yl)-N-methyl-benzamide]",300 to 3000 nM
26,"CN(C(=O)c1ccc(-c2nc3ccccc3o2)cc1)[C@@H]1CC[C@H](NC(=O)[C@H]2CCCO2)C1 [Compound A40, (R)-tetrahydro-furan-2-carboxylic acid {(1S,3R)-3-[(4-benzoxazol-2-yl-benzoyl)-methyl-amino]-cyclopentyl}-amide]",< 300 nM
27,"COC(=O)[C@H](CC(=O)N[C@H]1CC[C@@H](N(C)C(=O)c2ccc(-c3nc4ccccc4o3)cc2)C1)NC(C)=O [Compound A39, (S)-2-acetylamino-N-{(1S,3R)-3-[(4-benzoxazol-2-yl-benzoyl)-methyl-amino]-cyclopentyl}-succinamic acid methyl ester]",300 to 3000 nM
28,"CCC(=O)N[C@H]1CC[C@@H](N(C)C(=O)c2ccc(-c3ccc4[nH]ncc4c3C)c(C)c2)C1 [Compound A124, 3,N-dimethyl-4-(4-methyl-1H-indazol-5-yl)-N-((1R,3S)-3-propionylamino-cyclopentyl)-benzamide]",< 300 nM
29,"CCC(=O)N[C@H]1CC[C@@H](N(C)C(=O)c2ccc(-c3nc4ccccc4n3C)cc2)C1 [Compound A123, N-methyl-4-(1-methyl-1H-benzimidazol-2-yl)-N-((1R,3S)-3-propionylamino-cyclopentyl)-benzamide]",< 300 nM
30,"CCC(=O)N[C@H]1CC[C@@H](N(C)C(=O)c2ccc(-c3ccc(-c4ccn[nH]4)cc3)cc2)C1 [Compound A81, 4′-(2H-pyrazol-3-yl)-biphenyl-4-carboxylic acid methyl-((1R,3S)-3-propionylamino-cyclopentyl)-amide]",< 300 nM
